“Also recorded” adds a separate entry of the source.
Experiments:
[1] = tested on: tight junctions of Caco2 cells; assay: Caco2 tight junction morphology (cingulin or ZO-1 staining, tortuosity); type: cell-based, human
Protocol: (§1) CaCo-2 cells were purchased from ATCC. Cells were routinely grown in regular tissue culture medium (DMEM, 10% FCS, penicillin/streptomycin, GlutaMAX). For experiments with differing glucose concentrations, cells were routinely cultured in low-glucose DMEM (1 g/l glucose). Cells were seeded onto 96-well glass-bottom plates coated with either fibronectin or collagen 70 000 cells/well and allowed to grow for 24 hours to form confluent monolayer before indicated treatments.
(§2) For high resolution images of manually selected representative fields, a DeltaVision wide field fluorescent microscope (GE Healthcare) equipped with 40×UPlanFLN or 60×/1.42 PlanApo N oil objective (Olympus) was used. For multi-well plate scanning, the following automated imaging stations were used: DeltaVision microscope with plate scanning regiment, Hermes imaging station (IDEA bio-Medical) or ImagExpress microXL imaging station (Molecular Devices) equipped by 40× air objectives. In all cases in order to cover the curvature of apical surface of epithelial monolayer 5 μm thick z-stack was acquired around the tight junction plane (identified by best focus algorithm) and resulting image was generated as a maximum projection of all optical sections.
Cell images were segmented using Morphological Segmentation ImageJ plug-in and junction tortuosity was calculated as a ratio between junction length and Euclidian distance between its ends.

Citrobacter rodentium = type: in vivo, mouse; settings: putrescine plus 30 mg/ml taurine in drinking water
Protocol: For putrescine treatment, mice received putrescine by oral gavage with a dose of 200 mg/kg twice daily for 10 days prior to and during DSS treatment or Citrobacter rodentium infection.
A kanamycin-resistant and luciferase-expressing derivative of Citrobacter rodentium DBS100 (ICC180) was used for infection as previously described (Thaiss et al., Science. 2018 Mar. 23; 359(6382):1376-1383).
Mice were infected with 200 μl solution containing approximately 1×10^9 colony-forming units (CFU) of overnight cultured bacteria by oral gavage. Infection was monitored by enumerating stool CFU and measuring abdominal bioluminescent. For in vivo bioluminescent imaging, mice were anesthetized and bioluminescence was measured using an IVIS2000 instrument and Living Image software (Perkin Elmer). For ex vivo luminescence quantification, the whole colons were dissected, extensively washed from all luminal contents, longitudinally cut open and immediately imaged. For CFU counts, stool or tissues were collected, weighed and homogenized in sterile phosphate buffered saline (PBS−/−). Homogenates were then serially diluted in PBS−/− and plated on LB kanamycin plates, incubated overnight at 37° C. Bacterial CFUs were counted the next day, normalizing them to the stool or tissue weight.

Caco2 cells [2] = settings: 10 mM histamine
Protocol: For immunofluorescent staining, cells were permeabilized with 0.5% Triton ×100 in 3% paraformaldehyde for 3 minutes and fixed with 3% paraformaldehyde for an additional 30 minutes. Tight junction labeling was performed with either rabbit anti-cingulin antibodies or with anti-zo1 mouse monoclonal antibodies (BD Transduction Laboratories). Focal adhesions were labeled with either anti-paxillin mouse monoclonal antibodies (BD Transduction Laboratories) or with anti-zyxin rabbit polyclonal antibodies. Adherens junctions were labeled with anti-β-catenin rabbit polyclonal antibodies (Sigma). The following secondary, fluorescently labeled antibodies (Invitrogen) were used: Alexa Fluor 488 goat anti-mouse or anti-rabbit antibodies for tight junction visualization and Alexa Fluor 647 goat anti-mouse or anti-rabbit antibodies for focal adhesions or adherens junctions visualization. Actin was labeled with TRITC-phalloidin (Sigma) and nuclei with DAPI.

[3] = tested on: focal adhesions of Caco2 cells; assay: Caco2 cell-matrix focal adhesions (paxillin staining); type: cell-based, human; settings: 10 mM acetyl-proline, 1 mM putrescine, 10 mM histamine, 5 mM spermine
Protocol: as §1, §2

Caco2 cells [4] = assay: Traction force microscopy; type: cell-based, human; settings: Caco2 islands on polyacrylamide hydrogels, 24 hours treatment
Protocol: SoftTrac 6 well plates with pre-made collagen coated 12 kPa hydrogels containing embedded 0.2 μm fluorescent beads were purchased from Matrigen. 200,000 cells per well were plated and allowed to grow for 24 hours to form epithelial islands, treated with the indicated metabolite for another 24 hours and live-imaged using DeltaVision microscope equipped with environmental chamber. After acquisition of cell and fluorescent bead images in steady state conditions, cells were detached with trypsin and imaging of beads was repeated in a relaxed state. Displacement map generation and force calculations were performed using MatLab script described in Butler et al. Am J Physiol Cell Physiol. 2002.

SMILES	recovery of TJ structure on replacement of disruptors with stabilizer ([1]; CaCo2 cells pretreated with LPS, histamine or putrescine, even in the presence of the disruptors)	effect on tight junctions in metabolite screen ([1]; Caco2 cells)	tight junction distortion caused by LPS ([1]; Caco2 cells, 10 mM taurine, 1 mM tryptamine, 10 mM L-homo-serine, in combination with LPS)	disruptive effect of putrescine in mice with C. rodentium infection (Citrobacter rodentium)	apical actin-enriched structures (Caco2 cells [2])	recovery of the TJs after washout ([1]; CaCo2 cells pretreated 24 hrs with disruptor, then regular culture medium for 24 hours)	TJ structure after disruptor treatment ([1]; CaCo2 cells, 24 hrs, LPS 300 ng/ml, Histamine 10 mM, putrescine 1 mM)	tight junction disruption phenotype (type 1 zipper-like, type 2 flower-like) ([1]; Caco2 cells, known IBD mediators)	tight junction morphology ([1]; Caco2 cells, 10 mM acetyl-proline, 1 mM putrescine, 10 mM histamine, 5 mM spermine)	tight junction phenotype in combination with LPS ([1]; Caco2 cells, type 2 disruptor plus LPS)	focal adhesions size [3]	forces applied to the substrate (cell contractility) (Caco2 cells [4])
NCCS(=O)(=O)O [taurine]	full recovery of TJ structure	Stabilization	abolish tight junction distortion caused by LPS treatment alone	restoration of the disruptive effect of putrescine	–	–	–	–	–	–	–	–
NCCc1c[nH]cn1 [histamine]	–	Disruption	–	–	assembly of actin fibers in the same plane where tight junctions are located	nearly complete recovery of the TJs	pronounced TJ disruption	type 2	distortion of tight junctions geometry; also recorded: distortion of tight junction morphology	double effect	increase of focal adhesions size	increases cell contractility
